Reference: patent publication US7998995B2 (Exelixis Patent Company LLC, priority 2006, dated 2011)

The molecules below were run on T1, LXR (assay: Measured EC50 or IC50 for LXR (LXRα and/or LXRβ; assay and subtype not given)). Details: IC50 or EC50 class, subtype not specified.
T1 construct: fused on or other part: GST fused to the LBD in the FRET assay
Procedure: (§1) Measured EC50 or IC50 for LXR, and FXR for Compounds of the Invention
(§2) LXR and FXR activities for various compounds of the invention are presented in the following table; those compounds with EC50 or IC50 values <10 μM for at least one of LXRα, LXRβ or FXR are considered to be active. In the following Table, IC50 or EC50 data is represented as follows: A<1 μM, B=1-10 μm, and C>10 μM.

| SMILES | EC50 |
| --- | --- |
| CC(C)(O)c1cc(COc2ccc(-c3ccc(C(=O)O)cc3Cl)cc2)n(-c2c(Cl)cccc2Cl)n1 [Example 906, 2-chloro-4′-({[1-(2,6-dichlorophenyl)-3-(1-hydroxy-1-methylethyl)-1H-pyrazol-5-yl]methyl}oxy)biphenyl-4-carboxylic acid] | 1000 to 10000 nM |
| CC(C)c1cc(COc2ccc(-c3ccc(C(=O)O)cc3Cl)cc2)n(-c2c(Cl)cccc2Cl)n1 [Example 907, 2-chloro-4′-({[1-(2,6-dichlorophenyl)-3-(1-methylethyl)-1H-pyrazol-5-yl]methyl}oxy)biphenyl-4-carboxylic acid] | 1000 to 10000 nM |
| O=C(O)c1ccc(-c2ccc(OCc3cc(C(F)(F)F)nn3-c3c(Cl)cccc3Cl)cc2)cc1 [Example 921, 4′-({[1-(2,6-dichlorophenyl)-3-(trifluoromethyl)-1H-pyrazol-5-yl]methyl}oxy)biphenyl-4-carboxylic acid] | > 10000 nM |
| O=C(O)c1ccc(-c2ccc(OCc3cc(C(F)(F)F)nn3-c3c(Cl)cccc3Cl)cc2)c(Cl)c1 [Example 946, 2-chloro-4′-({[1-(2,6-dichlorophenyl)-3-(trifluoromethyl)-1H-pyrazol-5-yl]methyl}oxy)biphenyl-4-carboxylic acid] | < 1000 nM |
| CC(C)c1cc(COc2ccc(-c3ccc(C(=O)O)cc3Cl)cc2)n(-c2c(Cl)cccc2Cl)n1 [Example 947, 2-chloro-4′-({[1-(2,6-dichlorophenyl)-3-(1-methylethyl)-1H-pyrazol-5-yl]methyl}oxy)biphenyl-4-carboxylic acid] | < 1000 nM |
| CC(C)(O)c1cc(-c2ccc(-c3cccc(S(C)(=O)=O)c3)s2)n(-c2c(F)cccc2F)n1 [Example 948, 2-[1-(2,6-difluorophenyl)-5-{5-[3-(methylsulfonyl)phenyl]-2-thienyl}-1H-pyrazol-3-yl]propan-2-ol] | < 1000 nM |
| Cc1nccn1-c1cn(-c2ccc(-c3cccc(S(C)(=O)=O)c3)cc2)c(-c2c(Cl)cccc2Cl)n1 [Example 1001, 2′-(2,6-dichlorophenyl)-2-methyl-1′-[3′-(methylsulfonyl)biphenyl-4-yl]-1′H-1,4′-biimidazole] | < 1000 nM |
| CS(=O)(=O)c1cccc(-c2ccc(-n3cc(N4CCCC4)nc3-c3c(Cl)cccc3Cl)cc2)c1 [Example 1002, 2-(2,6-dichlorophenyl)-1-[3′-(methylsulfonyl)biphenyl-4-yl]-4-(pyrrolidin-1-yl)-1H-imidazole] | < 1000 nM |
| CS(=O)(=O)c1cccc(-c2ccc(-n3cc(N4CCC(O)C4)nc3-c3ccccc3C(F)(F)F)cc2)c1 (centres unmarked) [Example 1003, 1-(1-(3′-(methylsulfonyl)biphenyl-4-yl)-2-(2-(trifluoromethyl)phenyl)-1H-imidazol-4-yl)pyrrolidin-3-ol] | < 1000 nM |
| CS(=O)(=O)c1cccc(-c2ccc(-n3cc(N4CCCCC4)nc3-c3ccccc3C(F)(F)F)cc2)c1 [Example 1004, 1-(1-(3′-(methylsulfonyl)biphenyl-4-yl)-2-(2-(trifluoromethyl)phenyl)-1H-imidazol-4-yl)piperidine] | < 1000 nM |
| CS(=O)(=O)c1cccc(-c2ccc(-n3cc(N4CCCC4=O)nc3-c3c(Cl)cccc3Cl)cc2)c1 [Example 1005, 1-{2-(2,6-dichlorophenyl)-1-[3′-(methylsulfonyl)biphenyl-4-yl]-1H-imidazol-4-yl}pyrrolidin-2-one] | < 1000 nM |
| CS(=O)(=O)c1cccc(-c2ccc(-n3cc(-n4cnc(C#N)c4)nc3-c3ccccc3C(F)(F)F)cc2)c1 [Example 1008, 1′-(3′-(methylsulfonyl)biphenyl-4-yl)-2′-(2-(trifluoromethyl)phenyl)-1′H-1,4′-biimidazole-4-carbonitrile] | < 1000 nM |
| CS(=O)(=O)c1cccc(-c2ccc(-n3cc(-n4cnc(CO)c4)nc3-c3ccccc3C(F)(F)F)cc2)c1 [Example 1009, (1′-(3′-(methylsulfonyl)biphenyl-4-yl)-2′-(2-(trifluoromethyl)phenyl)-1′H-1,4′-biimidazol-4-yl)methanol] | < 1000 nM |
| CS(=O)(=O)c1cccc(-c2ccc(-n3cc(-n4cccc4C#N)nc3-c3ccccc3C(F)(F)F)cc2)c1 [Example 1010] | < 1000 nM |
| CS(=O)(=O)c1cccc(-c2ccc(-n3cc(-c4ncco4)nc3-c3ccccc3C(F)(F)F)cc2)c1 [Example 1011, 2-(1-(3′-(methylsulfonyl)biphenyl-4-yl)-2-(2-(trifluoromethyl)phenyl)-1H-imidazol-4-yl)oxazole] | > 10000 nM |
| CS(=O)(=O)c1cccc(-c2ccc(-n3cc(-c4ncco4)nc3-c3ccccc3Cl)c(Cl)c2)c1 [Example 1012, 2-(1-(3-chloro-3′-(methylsulfonyl)biphenyl-4-yl)-2-(2-chlorophenyl)-1H-imidazol-4-yl)oxazole] | 1000 to 10000 nM |

| SMILES | EC50 |
| --- | --- |
| Cc1csc(-c2cn(-c3ccc(-c4cccc(S(C)(=O)=O)c4)cc3)c(-c3c(Cl)cccc3Cl)n2)n1 [Example 1013, 2-(2-(2,6-dichlorophenyl)-1-(3′-(methylsulfonyl)biphenyl-4-yl)-1H-imidazol-4-yl)-4-methylthiazole] | < 1000 nM |
| CS(=O)(=O)c1cccc(-c2ccc(-n3cc(-c4nccs4)nc3-c3c(Cl)cccc3Cl)cc2)c1 [Example 1014, 2-(2-(2,6-dichlorophenyl)-1-(3′-(methylsulfonyl)biphenyl-4-yl)-1H-imidazol-4-yl)thiazole] | < 1000 nM |
| CS(=O)(=O)c1cccc(-c2ccc(-n3cc([C@H]4CCCN4)nc3-c3ccccc3C(F)(F)F)cc2)c1 [Example 1016, 1-(3′-(methylsulfonyl)biphenyl-4-yl)-4-((R)-pyrrolidin-2-yl)-2-(2-(trifluoromethyl)phenyl)-1H-imidazole] | < 1000 nM |
| CC(C)(C)OC(=O)N1CCC[C@@H]1c1cn(-c2ccc(-c3cccc(S(C)(=O)=O)c3)cc2)c(-c2ccccc2C(F)(F)F)n1 [Example 1017, (R)-tert-butyl 2-(1-(3′-(methylsulfonyl)biphenyl-4-yl)-2-(2-(trifluoromethyl)phenyl)-1H-imidazol-4-yl)pyrrolidine-1-carboxylate] | < 1000 nM |
| CC(=O)N1CCC[C@@H]1c1cn(-c2ccc(-c3cccc(S(C)(=O)=O)c3)cc2)c(-c2ccccc2C(F)(F)F)n1 [Example 1019, 1-((2R)-2-(1-(3′-(methylsulfonyl)biphenyl-4-yl)-2-(2-(trifluoromethyl)phenyl)-1H-imidazol-4-yl)pyrrolidin-1-yl)ethanone] | > 10000 nM |
| CS(=O)(=O)c1cccc(-c2ccc(-n3cc(-c4n[nH]c(=O)o4)nc3-c3ccccc3C(F)(F)F)cc2)c1 [Example 1023, 5-(1-(3′-(methylsulfonyl)biphenyl-4-yl)-2-(2-(trifluoromethyl)phenyl)-1H-imidazol-4-yl)-1,3,4-oxadiazol-2(3H)-one] | < 1000 nM |
| Cc1nnc(-c2cn(-c3ccc(-c4cccc(S(C)(=O)=O)c4)cc3)c(-c3ccccc3C(F)(F)F)n2)o1 [Example 1024, 2-methyl-5-(1-(3′-(methylsulfonyl)biphenyl-4-yl)-2-(2-(trifluoromethyl)phenyl)-1H-imidazol-4-yl)-1,3,4-oxadiazole] | < 1000 nM |
| CS(=O)(=O)c1cccc(-c2ccc(-n3cc(-c4nnc(C(F)(F)F)o4)nc3-c3ccccc3Cl)c(Cl)c2)c1 [Example 1025, 2-(1-(3-chloro-3′-(methylsulfonyl)biphenyl-4-yl)-2-(2-chlorophenyl)-1H-imidazol-4-yl)-5-(trifluoromethyl)-1,3,4-oxadiazole] | < 1000 nM |
| Cc1coc(-c2cn(-c3ccc(-c4cccc(S(C)(=O)=O)c4)cc3)c(-c3ccccc3C(F)(F)F)n2)n1 [Example 1026, methyl-2-(1-(3′-(methylsulfonyl)biphenyl-4-yl)-2-(2-(trifluoromethyl)phenyl)-1H-imidazol-4-yl)oxazole] | < 1000 nM |
| CS(=O)(=O)c1cccc(-c2ccc(-n3cc(-c4cnco4)nc3-c3ccccc3Cl)c(Cl)c2)c1 [Example 1028, 5-(1-(3-chloro-3′-(methylsulfonyl)biphenyl-4-yl)-2-(2-chlorophenyl)-1H-imidazol-4-yl)oxazole] | < 1000 nM |
| CS(=O)(=O)c1cccc(-c2ccc(-n3cc(C4(C#N)CCOCC4)nc3-c3ccccc3C(F)(F)F)cc2)c1 [Example 1031, 4-(1-(3′-methylsulfonyl)biphenyl-4-yl)-2-(2-(trifluoromethyl)phenyl-1H-imidazol-4-yl)tetrahydro-2H-pyran-4-carbonitrile] | < 1000 nM |
| Cc1nc(-c2cn(-c3ccc(-c4cccc(S(C)(=O)=O)c4)cc3)c(-c3ccccc3C(F)(F)F)n2)no1 [Example 1032] | < 1000 nM |
| Cn1oc(=O)nc1-c1cn(-c2ccc(-c3cccc(S(C)(=O)=O)c3)cc2)c(-c2ccccc2C(F)(F)F)n1 [Example 1034] | < 1000 nM |
| CS(=O)(=O)c1cccc(-c2ccc(-n3cc(-c4nc(=O)o[nH]4)nc3-c3ccccc3C(F)(F)F)cc2)c1 [Example 1035] | < 1000 nM |
| Cn1oc(=S)nc1-c1cn(-c2ccc(-c3cccc(S(C)(=O)=O)c3)cc2)c(-c2ccccc2C(F)(F)F)n1 [Example 1036] | < 1000 nM |
| Cc1nsc(-c2cn(-c3ccc(-c4cccc(S(C)(=O)=O)c4)cc3)c(-c3ccccc3C(F)(F)F)n2)n1 [Example 1037] | > 10000 nM |

The molecules below were run against T2, FXR (Homo sapiens, UniProt Q96RI1) (assay: Measured EC50 or IC50 for FXR (assay not given)). Details: IC50 or EC50 class; assay not specified.
T2 sequence (Q96RI1 1-472 isoform Q96RI1-2): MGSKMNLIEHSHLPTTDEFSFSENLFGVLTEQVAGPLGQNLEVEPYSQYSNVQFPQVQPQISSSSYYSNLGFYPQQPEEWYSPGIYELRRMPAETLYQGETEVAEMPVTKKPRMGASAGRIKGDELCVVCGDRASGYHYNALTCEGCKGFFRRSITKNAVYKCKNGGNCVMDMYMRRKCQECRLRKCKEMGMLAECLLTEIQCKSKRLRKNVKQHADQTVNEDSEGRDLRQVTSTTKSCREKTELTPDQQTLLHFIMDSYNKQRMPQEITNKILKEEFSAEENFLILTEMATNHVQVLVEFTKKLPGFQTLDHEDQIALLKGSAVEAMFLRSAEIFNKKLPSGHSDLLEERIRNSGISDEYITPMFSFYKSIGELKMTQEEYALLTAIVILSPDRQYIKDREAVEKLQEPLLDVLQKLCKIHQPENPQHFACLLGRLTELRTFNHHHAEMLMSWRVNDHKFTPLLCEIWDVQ
Procedure: as §1, §2

| SMILES | EC50 |
| --- | --- |
| CC(C)(O)c1cc(COc2ccc(-c3ccc(C(=O)O)cc3Cl)cc2)n(-c2c(Cl)cccc2Cl)n1 [Example 906, 2-chloro-4′-({[1-(2,6-dichlorophenyl)-3-(1-hydroxy-1-methylethyl)-1H-pyrazol-5-yl]methyl}oxy)biphenyl-4-carboxylic acid] | 1000 to 10000 nM |
| CC(C)c1cc(COc2ccc(-c3ccc(C(=O)O)cc3Cl)cc2)n(-c2c(Cl)cccc2Cl)n1 [Example 907, 2-chloro-4′-({[1-(2,6-dichlorophenyl)-3-(1-methylethyl)-1H-pyrazol-5-yl]methyl}oxy)biphenyl-4-carboxylic acid] | < 1000 nM |
| O=C(O)c1ccc(-c2ccc(OCc3cc(C(F)(F)F)nn3-c3c(Cl)cccc3Cl)cc2)cc1 [Example 921, 4′-({[1-(2,6-dichlorophenyl)-3-(trifluoromethyl)-1H-pyrazol-5-yl]methyl}oxy)biphenyl-4-carboxylic acid] | 1000 to 10000 nM |
| O=C(O)c1ccc(-c2ccc(OCc3cc(C(F)(F)F)nn3-c3c(Cl)cccc3Cl)cc2)c(Cl)c1 [Example 946, 2-chloro-4′-({[1-(2,6-dichlorophenyl)-3-(trifluoromethyl)-1H-pyrazol-5-yl]methyl}oxy)biphenyl-4-carboxylic acid] | 1000 to 10000 nM |
| CC(C)c1cc(COc2ccc(-c3ccc(C(=O)O)cc3Cl)cc2)n(-c2c(Cl)cccc2Cl)n1 [Example 947, 2-chloro-4′-({[1-(2,6-dichlorophenyl)-3-(1-methylethyl)-1H-pyrazol-5-yl]methyl}oxy)biphenyl-4-carboxylic acid] | < 1000 nM |
| CC(C)(O)c1cc(-c2ccc(-c3cccc(S(C)(=O)=O)c3)s2)n(-c2c(F)cccc2F)n1 [Example 948, 2-[1-(2,6-difluorophenyl)-5-{5-[3-(methylsulfonyl)phenyl]-2-thienyl}-1H-pyrazol-3-yl]propan-2-ol] | 1000 to 10000 nM |
